{"source": "paper PMC9799096", "about": "“ASK120067 potently suppresses B-cell or T-cell malignancies in vitro and in vivo by inhibiting BTK and ITK” (Frontiers in Pharmacology, 2022)", "key": {"[1]": {"molecular_target": "Bruton’s tyrosine kinase (BTK) (Homo sapiens, UniProt Q06187)", "sequence (Q06187 2-659)": "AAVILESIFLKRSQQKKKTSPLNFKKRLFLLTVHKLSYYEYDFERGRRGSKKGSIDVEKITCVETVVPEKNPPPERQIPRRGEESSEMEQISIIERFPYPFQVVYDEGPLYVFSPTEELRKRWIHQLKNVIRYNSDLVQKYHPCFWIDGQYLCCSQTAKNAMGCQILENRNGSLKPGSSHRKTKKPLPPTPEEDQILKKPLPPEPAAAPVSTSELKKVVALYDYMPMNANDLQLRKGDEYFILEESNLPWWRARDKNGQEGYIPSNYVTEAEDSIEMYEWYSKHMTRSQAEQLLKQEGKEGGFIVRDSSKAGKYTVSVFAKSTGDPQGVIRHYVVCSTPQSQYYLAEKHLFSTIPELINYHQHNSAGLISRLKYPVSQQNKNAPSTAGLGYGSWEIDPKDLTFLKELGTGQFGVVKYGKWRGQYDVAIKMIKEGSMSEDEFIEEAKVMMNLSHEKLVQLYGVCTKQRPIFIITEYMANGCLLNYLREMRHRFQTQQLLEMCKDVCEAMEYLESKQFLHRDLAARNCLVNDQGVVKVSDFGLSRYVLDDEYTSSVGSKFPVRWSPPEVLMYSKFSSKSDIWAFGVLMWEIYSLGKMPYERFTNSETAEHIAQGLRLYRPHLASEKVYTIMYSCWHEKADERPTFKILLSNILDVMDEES", "assay": "ELISA kinase activity assay with purchased BTK protein (MilliporeSigma #[…]-552)", "assay_type": "biochemical"}, "[2]": {"molecular_target": "T1, interleukin-2-inducible T cell kinase (ITK) (Homo sapiens, UniProt Q08881)", "T1 sequence (Q08881 1-620)": "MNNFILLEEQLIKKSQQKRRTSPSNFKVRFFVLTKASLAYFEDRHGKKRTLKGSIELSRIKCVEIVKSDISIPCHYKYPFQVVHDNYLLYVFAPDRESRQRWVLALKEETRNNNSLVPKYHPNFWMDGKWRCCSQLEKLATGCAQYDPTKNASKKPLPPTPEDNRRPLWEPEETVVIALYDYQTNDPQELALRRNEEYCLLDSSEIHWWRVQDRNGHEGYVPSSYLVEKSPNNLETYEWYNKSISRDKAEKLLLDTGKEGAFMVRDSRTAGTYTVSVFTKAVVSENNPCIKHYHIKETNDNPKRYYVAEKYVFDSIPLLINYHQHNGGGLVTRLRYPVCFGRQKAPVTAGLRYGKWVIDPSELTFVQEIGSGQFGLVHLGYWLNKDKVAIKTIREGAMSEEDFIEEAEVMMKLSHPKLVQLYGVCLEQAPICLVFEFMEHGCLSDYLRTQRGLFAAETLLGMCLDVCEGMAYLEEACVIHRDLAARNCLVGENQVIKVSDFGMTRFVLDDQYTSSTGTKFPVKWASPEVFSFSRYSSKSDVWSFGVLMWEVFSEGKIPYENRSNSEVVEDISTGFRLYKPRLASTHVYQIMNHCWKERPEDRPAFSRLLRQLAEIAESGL", "assay": "ELISA kinase activity assay with purchased ITK protein (MilliporeSigma #[…]-660)", "assay_type": "biochemical"}}, "data": [{"smiles": "C=CC(=O)Nc1cc(Nc2ncc(Cl)c(Nc3ccc4ccccc4c3)n2)c(OC)cc1N(C)CCN(C)C", "note": "[ASK120067]", "values": [{"measurement": "IC50", "setting": "[1]", "result": 2.1, "unit": "nM"}, {"measurement": "IC50", "setting": "[2]", "result": 0.4, "unit": "nM"}]}]}
